Consider 7 compounds from publication PMC8536978 (Viruses, 2021).

Where two headings read alike, the source gives them in different places.

Data set [1] has as its system HIV-1 reverse transcription. Kind of data set: HIV-1 reverse transcription, early and late LTR DNA products by real-time PCR. Type of data set: cell-based. The following applies: HIV-1 DNA 6 h post infection. (In general: In qPCR the cycle at which signal appears reflects the starting amount.)
Data set [2] deals with HIV-1 IIIB. Description: HIV-1 IIIB replication in PBMCs (p24 ELISA, gag and nef mRNA RT-PCR). In kind it is cell-based. The following applies: for reduction in gag mRNA / reduction in p24 / reduction in HIV-1 nef mRNA: PBMCs infected with HIV-1 IIIB; for reduction in gag mRNA / reduction in HIV-1 nef mRNA: real-time RT-PCR; for reduction in p24: p24 ELISA. For orientation: An ELISA detects its analyte on a solid surface through an enzyme-linked reagent.

The next data set has as its system PBMCs. Kind of data set: Trypan blue exclusion viability of HIV-1 IIIB infected PBMCs. Type of data set: cell-based.
For the next data set, the target named is Tat–CDK9 interaction (UniProt P04608+P50750). Kind of data set: Co-immunoprecipitation of CDK9 with Flag-Tat from 293T cells. In kind it is cell-based. The following applies: 20 μM, 24 h.
Sequence of Tat–CDK9 interaction (P04608 whole entry): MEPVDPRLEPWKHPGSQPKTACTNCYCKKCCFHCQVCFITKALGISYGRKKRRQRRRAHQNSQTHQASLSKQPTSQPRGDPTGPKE
Sequence of Tat–CDK9 interaction (P50750 whole entry): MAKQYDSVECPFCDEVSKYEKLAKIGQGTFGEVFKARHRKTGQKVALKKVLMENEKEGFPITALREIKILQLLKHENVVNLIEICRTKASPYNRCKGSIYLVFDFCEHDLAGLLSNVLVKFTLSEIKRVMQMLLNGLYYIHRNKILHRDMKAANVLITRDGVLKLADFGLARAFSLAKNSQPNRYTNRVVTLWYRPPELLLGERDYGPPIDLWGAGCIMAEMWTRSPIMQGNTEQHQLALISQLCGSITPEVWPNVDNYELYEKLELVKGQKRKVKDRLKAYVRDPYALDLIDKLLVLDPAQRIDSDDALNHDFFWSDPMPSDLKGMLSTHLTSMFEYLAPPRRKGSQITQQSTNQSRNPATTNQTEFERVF
The next data set concerns Tat–TAR RNA interaction. Kind of data set: Tat–TAR RNA interaction pull-down assay. Type of data set: binding, HIV-1. The following applies: 10 µM compound, Flag-Tat lysate, biotinylated TAR RNA on beads.
Another data set relates to HIV-1 LTR + Tat. In kind it is cell-based. The following applies: Human immunodeficiency virus 1, HEK-293T, 24 h, read-out: HIV-1 LTR + Tat (Tat-induced transcription) IC50.
In data set [3] the test system is HIV-1 IIIB. Description: HIV-1 IIIB replication in CEM T cells (p24 ELISA, gag mRNA RT-PCR). In kind it is cell-based. The following applies: CEM T cells infected with HIV-1 IIIB; for reduction in p24 levels: p24 ELISA; for reduction of HIV-1 gag mRNA: real-time RT-PCR.
The nature of data set [4]: MTT cell proliferation/viability assay. Type of data set: cell-based. The following applies: human, CEM T cells, 1-100 μM.
Data set [5] concerns the target Tat–cyclin T1 interaction (UniProt O60563+P04608). Description: Co-immunoprecipitation of cyclin T1 with Flag-Tat from 293T cells. In kind it is cell-based. The following applies: 24 h; for reduction of cyclin T1 associated with Tat: 20 μM.
The next data set has as its system luciferase translation. Description: In vitro translation of luciferase RNA in rabbit reticulocyte lysate. The following applies: 30 μM, 90 min. Type of data set: biochemical.
The test system of data set [6] is HIV-1-LUC-G (VSVG pseudotyped HIV-1 expressing luciferase). Description: microbe, parasite or virus in culture. In kind it is cell-based. The following applies: for IC50: read-out: One round HIV-1 infection IC50.
In the next data set the test system is HIV-1 LTR. Description: Basal HIV-1 transcription, HIV-1 LTR-luciferase reporter in 293T cells. The following applies: HIV-1 LTR-luciferase reporter alone, 24 h treatment. Type of data set: cell-based.
In another data set the test system is TAR RNA. Also on record: method as in earlier work. The following applies: cited from earlier work.
Where [7] appears, read: Human immunodeficiency virus 1, T-cell.

Sequence of Tat–cyclin T1 interaction (P04608 whole entry): as the sequence (P04608 whole entry) above
Sequence of Tat–cyclin T1 interaction (O60563 whole entry): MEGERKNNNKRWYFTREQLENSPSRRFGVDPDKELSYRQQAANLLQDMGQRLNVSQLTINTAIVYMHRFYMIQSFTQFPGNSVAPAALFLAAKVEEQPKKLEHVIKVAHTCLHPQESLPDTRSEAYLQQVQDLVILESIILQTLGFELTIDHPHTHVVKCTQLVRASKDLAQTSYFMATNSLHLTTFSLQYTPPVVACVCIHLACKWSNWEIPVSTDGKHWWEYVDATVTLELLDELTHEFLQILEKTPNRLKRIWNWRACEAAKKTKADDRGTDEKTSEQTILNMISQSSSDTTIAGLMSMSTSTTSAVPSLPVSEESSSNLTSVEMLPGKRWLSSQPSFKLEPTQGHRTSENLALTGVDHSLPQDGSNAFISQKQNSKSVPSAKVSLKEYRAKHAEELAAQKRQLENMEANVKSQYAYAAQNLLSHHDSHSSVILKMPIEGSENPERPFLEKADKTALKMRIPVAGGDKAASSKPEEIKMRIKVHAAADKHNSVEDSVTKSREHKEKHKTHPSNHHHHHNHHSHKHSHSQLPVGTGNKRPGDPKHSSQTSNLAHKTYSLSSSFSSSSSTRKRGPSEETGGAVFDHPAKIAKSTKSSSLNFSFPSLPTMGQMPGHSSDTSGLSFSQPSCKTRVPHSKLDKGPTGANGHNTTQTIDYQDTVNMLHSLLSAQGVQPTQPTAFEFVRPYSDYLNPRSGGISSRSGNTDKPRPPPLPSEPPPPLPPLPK

In the case of `Cc1cn([C@H]2C[C@H](N=[N+]=[N-])[C@@H](CO)O2)c(=O)[nH]c1=O` [AZT, azidothymidine], in [1], the “reduction of HIV-1 early LTR products” value worked out at 1.8 fold and the “reduction of HIV-1 late LTR products” value was determined as 63 fold. Besides, the “reduction in gag mRNA” value with HIV-1 IIIB [2] is reported as “strongly inhibited HIV-1”. Besides, the “reduction of PBMCs viability” value in the data set with PBMCs (human, 48 h) is listed as 29%.

The term IC50 denotes the concentration that gives 50% inhibition. Usually EC50 stands for the concentration at which the effect is half-maximal. Low readings indicate higher potency in that assay, high ones lower potency in that assay. As for `Nc1ccc2oc(-c3cc(F)c(F)cc3Cl)nc2c1` [T0516-4834], the “reduction in CDK9 associated with Tat” value at Tat–CDK9 interaction is reported as 1.4 fold. Besides, in the data set on Tat–TAR RNA interaction, the “inhibition of Tat binding to TAR RNA” value is 2.5 fold. Also, the IC50 in the data set on HIV-1 LTR + Tat is 2 µM. Further, in the data set with HIV-1 IIIB [3], the “reduction in p24 levels” value stood at 4 fold and the “reduction of HIV-1 gag mRNA” value was 27 fold. The HIV-1 inhibition with HIV-1 IIIB [2] (HIV-1 IIIB infected PBMCs, 10 µM) is ~ 10 fold. In addition, in the data set with HIV-1 IIIB [2], the “reduction in p24” value worked out at 4 fold, the “reduction in HIV-1 nef mRNA” value was determined as 10 fold and the “reduction in gag mRNA” value stood at 2.5 fold. Moreover, the 50% effective concentration (EC50) at 24 h in [4] was more than 100 µM. In [5] (HEK-293T, read-out: reduction of cyclin T1 associated with Tat), the inhibition at 20 µM was less than 20%. For the same compound, the “reduction in luciferase translation” value in the data set with luciferase translation was ~ 30%. In data set [6], the “Luciferase (%, relative to DMSO control)” value is 37.74% and the IC50 came out at 0.3 µM. Further, the IC50 in data set [6] (setting [7]) worked out at 0.2 µM.

Turning to `O=C1OCCC1Sc1nnc(-c2sc3ccccc3c2Cl)o1` (centres unmarked) [T5628834], at Tat–CDK9 interaction, the “reduction in CDK9 associated with Tat” value came to 4 fold. Besides, the IC50 with HIV-1 LTR + Tat was 20 µM. Besides, in the data set on HIV-1 IIIB [3], the “reduction in p24 levels” value is on record as 1.26 fold and the “reduction of HIV-1 gag mRNA” value is recorded as 1.6 fold. In the data set on HIV-1 IIIB [2], the “reduction in p24” value is given as 3.2 fold and the “reduction in HIV-1 nef mRNA” value was “no effect”. Further, the EC50 at 24 h in data set [4] was more than 100 µM. Also, the “reduction of cyclin T1 associated with Tat” value in data set [5] stood at 1.6 fold. In data set [6], the “Luciferase (%, relative to DMSO control)” value was 28.71% and the IC50 came to 3.7 µM. Besides, the IC50 in data set [6] (setting [7]) stood at 3.46 µM.

With `O=C(O)COc1ccc(/C=C/C(=O)c2ccc3c(c2)OCO3)cc1` [T6780107], the “reduction in CDK9 associated with Tat” value at Tat–CDK9 interaction was “no effect”. Further, half-maximal inhibition in the data set on HIV-1 LTR (IC50) was put at 4.63 µM. Also, the IC50 with HIV-1 LTR + Tat was found to be 3.5 µM. Also, in the data set on HIV-1 IIIB [3], the “reduction in p24 levels” value is 2.2 fold and the “reduction of HIV-1 gag mRNA” value came out at 5.5 fold. In the data set on HIV-1 IIIB [2], the “reduction in p24” value is on record as “No significant effect”, the “reduction in HIV-1 nef mRNA” value is listed as “no effect” and the “reduction in gag mRNA” value was “No significant effect”. Moreover, the EC50 at 24 h in data set [4] was more than 100 µM. For the same compound, the “reduction of cyclin T1 associated with Tat” value in data set [5] is listed as “no significant effect”. In addition, in [6], the “Luciferase (%, relative to DMSO control)” value turned out to be 18.24% and the IC50 stood at 3.7 µM. Also, the IC50 in data set [6] (setting [7]) was 2.97 µM.

In the case of `CC(=O)c1ccc2c(c1)N(CCCN(C)C)c1ccccc1S2` [acetylpromazine], the “affinity of binding to TAR RNA” value in the data set on TAR RNA is recorded as “high affinity (nanomolar)”.

With `C[C@@H]1C[C@@H]([C@H](O)CC2CC(=O)NC(=O)C2)C(=O)[C@@H](C)C1` [cycloheximide, reference compound], the “reduction in luciferase translation” value with luciferase translation was “completely blocked translation”.

Turning to `Cc1nnc(C(=O)NC(C)(C)c2nc(C(=O)NCc3ccc(F)cc3)c(O)c(=O)n2C)o1` [raltegravir, reference compound], the “reduction in gag mRNA” value in the data set on HIV-1 IIIB [2] is reported as “strongly inhibited HIV-1”. Also, in the data set with PBMCs (HIV-1 IIIB infected PBMCs, trypan blue exclusion), the “reduction of PBMCs viability” value turned out to be 18%.
